These results are taken from ChEMBL document CHEMBL1146902, “Antifungal anthraquinones from Saprosma fragrans” (2006).

In one experiment the test system is Cryptococcus neoformans. In words: Antifungal activity against Cryptococcus neoformans. The experiment is classed as functional.
The subject of another experiment is Candida albicans. Nature of the experiment: Antifungal activity against Candida albicans. It is filed as functional.
Another experiment relates to Aspergillus fumigatus. Nature of the experiment: Antifungal activity against Aspergillus fumigatus. The experiment is classed as functional.
The next experiment concerns Sporothrix schenckii. Nature of the experiment: Antifungal activity against Sporothrix schenckii. It is filed as functional.
The test system of a further experiment is Trichophyton benhamiae. In words: Antifungal activity against Trichophyton mentagrophytes. It is filed as functional, Arthroderma benhamiae.

In brackets after ≈: the same amount, converted by molar mass. Bounds are passed on as bounds.

Consider `COc1c(C=O)c(O)c(O)c2c1C(=O)c1ccccc1C2=O`, for which the MIC against Cryptococcus neoformans is 50 µg/mL (≈ 168 µM); in the experiment with Candida albicans, 50 µg/mL (≈ 168 µM); against Aspergillus fumigatus, above 100 µg/mL; in the experiment on Sporothrix schenckii it was 25 µg/mL (≈ 83.8 µM); with Trichophyton benhamiae, 12.5 µg/mL (≈ 41.9 µM).
For `COc1c(C=O)c(O)cc2c1C(=O)c1ccccc1C2=O` [DAMNACANTHAL], the MIC in the experiment on Cryptococcus neoformans stood at 12.5 µg/mL (≈ 44.3 µM); in the experiment with Candida albicans, 50 µg/mL (≈ 177 µM); with Aspergillus fumigatus, 50 µg/mL (≈ 177 µM); in the experiment on Sporothrix schenckii, 6.25 µg/mL (≈ 22.1 µM); in the experiment on Trichophyton benhamiae, 1.56 µg/mL (≈ 5.53 µM).
Take `Clc1ccccc1C(c1ccccc1)(c1ccccc1)n1ccnc1` [CLOTRIMAZOLE]: the minimal inhibitory concentration (MIC) in the experiment with Cryptococcus neoformans is 0.09 µg/mL (≈ 0.261 µM); against Candida albicans, 3.1 µg/mL (≈ 8.99 µM); against Aspergillus fumigatus, 1.56 µg/mL (≈ 4.52 µM); against Sporothrix schenckii, 1.56 µg/mL (≈ 4.52 µM); against Trichophyton benhamiae, 0.39 µg/mL (≈ 1.13 µM).
